Experimental data: patent publication US20240082212A1, “USE OF MDMA FOR TREATMENT OF STRESS-RELATED DISORDERS” (priority 2022, published 2024)

Columns and labels:
[1] = molecular target: Serotonin 5-HT2A (Homo sapiens, UniProt P28223); assay: Eurofins Panlabs radioligand binding panel, serotonin 5-HT2A
[2] = molecular target: T1, Serotonin 5-HT2C (Homo sapiens, UniProt P28335); assay: biochemical; type: binding
T1 sequence (P28335 33-458): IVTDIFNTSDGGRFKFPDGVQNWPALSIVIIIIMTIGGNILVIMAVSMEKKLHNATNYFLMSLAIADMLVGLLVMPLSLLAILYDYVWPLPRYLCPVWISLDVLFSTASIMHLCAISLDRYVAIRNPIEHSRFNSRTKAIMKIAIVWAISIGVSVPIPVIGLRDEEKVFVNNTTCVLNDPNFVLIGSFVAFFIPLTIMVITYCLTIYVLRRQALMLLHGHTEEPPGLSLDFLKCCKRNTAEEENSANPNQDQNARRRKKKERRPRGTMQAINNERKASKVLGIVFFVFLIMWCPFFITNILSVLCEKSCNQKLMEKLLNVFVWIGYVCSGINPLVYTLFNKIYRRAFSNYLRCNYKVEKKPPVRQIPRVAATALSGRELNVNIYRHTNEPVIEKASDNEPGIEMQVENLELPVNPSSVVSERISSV

[3] = molecular target: Nicotinic acetylcholine α3β4 (Homo sapiens, UniProt P30926+P32297); assay: Eurofins Panlabs radioligand binding panel, nicotinic acetylcholine α3β4
[4] = system: C57BL/6 mice; assay: Mouse locomotor activity over 11 days after single administration
Protocol: Methods. Male C57BL/6 mice (n=10-12 per group) from Jackson Laboratories, US (10-12 weeks of age), were assigned randomly to treatment groups. The animals were acclimated to the laboratory for at least five days prior to experimental manipulation. […] Standard rodent chow and water were available ad libitum, except during experimental test sessions. Animals were maintained in a controlled environment, and temperature and humidity were recorded continuously in the holding room.
The animal procedures were conducted according to established and approved protocols. On each experimental day, animals were acclimated to a procedure room adjacent to the testing room for at least 30 minutes prior to the start of experimental sessions. To evaluate acute compound effects on activity, an animal was administered a single dose of test article 30 minutes prior to individual placement in a novel test chamber on experimental day 1. Activity was detected using photo beams (e.g., 16×16 beams with a space of 2 cm between beams, Med Associates®) and recorded using the Activity Monitor™ program designed by Med Associates®. The primary endpoint was total distance traveled (cm), as a measure of locomotion. Additional activity measures included total ambulatory counts, ambulatory time (sec), vertical counts and vertical time (sec). All endpoints were recorded and analyzed over a 30-minute test period. At the end of the test session, each animal was returned to its home cage. To evaluate potential lasting effects on activity following single administration of compounds, each animal was re-evaluated in the same test chamber on experimental days 2, 6, and 11, without additional test article administration.
Animals were randomly assigned to treatment groups and testing was conducted in a manner counterbalancing treatment groups. Activity measures were analyzed statistically using 2-way analysis of variance (ANOVA) with experimental day as the within-subjects factor and treatment as the between-subjects factor. Following a significant overall ANOVA (p<0.05), post hoc comparisons between test article and vehicle conditions were made using Fisher's Least Significant Difference (LSD, p<0.05).

[5] = rats; 1 week after 4 hourly SC injections at 10 mg/kg/injection (Biezonski et al., 2013); cited from earlier work
[6] = molecular target: T2, Adrenergic α2A (Homo sapiens, UniProt P08913); assay: Eurofins Panlabs radioligand binding panel, adrenergic α2A; settings: 10 uM
T2 sequence (P08913 1-465): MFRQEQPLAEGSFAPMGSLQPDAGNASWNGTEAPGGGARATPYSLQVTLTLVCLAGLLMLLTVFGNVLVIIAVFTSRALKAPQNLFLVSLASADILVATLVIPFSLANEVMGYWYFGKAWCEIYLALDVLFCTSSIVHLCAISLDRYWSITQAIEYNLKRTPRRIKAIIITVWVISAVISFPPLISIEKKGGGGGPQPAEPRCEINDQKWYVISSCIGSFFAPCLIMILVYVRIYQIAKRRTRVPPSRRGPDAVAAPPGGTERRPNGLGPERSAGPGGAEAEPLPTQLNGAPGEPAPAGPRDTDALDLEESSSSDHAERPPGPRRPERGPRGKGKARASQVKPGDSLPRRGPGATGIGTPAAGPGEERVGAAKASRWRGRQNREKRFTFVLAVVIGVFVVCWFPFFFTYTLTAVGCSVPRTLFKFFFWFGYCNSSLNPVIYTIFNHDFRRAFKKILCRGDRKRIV
Protocol: Each of the compounds was evaluated for binding to 87 different targets as part of a panel (Eurofins Panlabs, Taiwan, China). Each compound was tested at a single concentration of […]. The panel included mostly G-protein-couple receptors, ion channels, enzymes, transporters and nuclear receptors, expressed in the central nervous system, cardiovascular, respiratory, gastrointestinal and renal systems. A limited number of targets were of pig, rat or guinea pig origin. Targets were expressed in human recombinant cells lines, rat brain or spinal cord, guinea pig brain or pig heart. Methods were adapted from the scientific literature to maximize reliability and reproducibility. Reference standards were run as an integral part of each assay to ensure validity of the results obtained (available online at the eurofins website for the safety screen 87 panel).

[7] = molecular target: T3, Adrenergic α2B (Homo sapiens, UniProt P18089); assay: Eurofins Panlabs radioligand binding panel, adrenergic α2B; settings: 10 uM
T3 sequence (P18089 1-450): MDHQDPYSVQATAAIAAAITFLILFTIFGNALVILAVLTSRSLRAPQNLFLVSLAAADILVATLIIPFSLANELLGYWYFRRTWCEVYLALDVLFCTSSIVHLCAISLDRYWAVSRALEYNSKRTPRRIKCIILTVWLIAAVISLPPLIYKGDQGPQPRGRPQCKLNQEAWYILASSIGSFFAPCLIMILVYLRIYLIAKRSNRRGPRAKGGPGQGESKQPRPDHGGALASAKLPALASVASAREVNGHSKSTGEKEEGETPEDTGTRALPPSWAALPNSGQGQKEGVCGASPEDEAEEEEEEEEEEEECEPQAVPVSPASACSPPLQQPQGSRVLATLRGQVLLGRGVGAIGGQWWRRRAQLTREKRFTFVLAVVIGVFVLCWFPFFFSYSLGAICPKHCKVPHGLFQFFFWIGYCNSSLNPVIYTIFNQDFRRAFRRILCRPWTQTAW

[8] = system: L-type calcium channel phenylalkylamine binding site; assay: Eurofins Panlabs radioligand binding panel, L-type calcium channel; set-up: species or system Rat; settings: for % inhibition of binding or activity: 10 uM; for IC50 / Ki: 10 half-log concentrations, 0.3 nM to 10 μM, duplicate
[9] = racemic MDMA 7.8 mg/kg IP, Day 1, persisted out to Day 2, vs vehicle
[10] = racemic MDMA 7.8 mg/kg IP, any day of testing (Days 1, 2, 6, 11)
[11] = read-out: % inhibition of binding or activity
[12] = R-MDMA all 3 dose levels (10, 17, 30 mg/kg IP), only on Day 1

Serotonin 5-HT2A, sequence (P28223 whole entry): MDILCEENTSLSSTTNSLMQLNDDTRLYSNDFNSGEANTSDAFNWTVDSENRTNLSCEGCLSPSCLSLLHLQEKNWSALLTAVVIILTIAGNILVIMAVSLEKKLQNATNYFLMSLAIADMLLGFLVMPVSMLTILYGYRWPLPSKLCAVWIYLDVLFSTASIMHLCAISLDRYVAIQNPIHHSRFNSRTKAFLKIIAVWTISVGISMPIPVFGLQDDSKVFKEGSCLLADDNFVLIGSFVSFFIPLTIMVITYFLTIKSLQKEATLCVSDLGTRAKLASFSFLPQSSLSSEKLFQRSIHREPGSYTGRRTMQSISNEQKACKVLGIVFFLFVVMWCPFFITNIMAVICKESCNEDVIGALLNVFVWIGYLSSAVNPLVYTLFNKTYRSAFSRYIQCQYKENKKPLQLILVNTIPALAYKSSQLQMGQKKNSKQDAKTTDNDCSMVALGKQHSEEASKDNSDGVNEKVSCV
Nicotinic acetylcholine α3β4, sequence (P32297 32-505): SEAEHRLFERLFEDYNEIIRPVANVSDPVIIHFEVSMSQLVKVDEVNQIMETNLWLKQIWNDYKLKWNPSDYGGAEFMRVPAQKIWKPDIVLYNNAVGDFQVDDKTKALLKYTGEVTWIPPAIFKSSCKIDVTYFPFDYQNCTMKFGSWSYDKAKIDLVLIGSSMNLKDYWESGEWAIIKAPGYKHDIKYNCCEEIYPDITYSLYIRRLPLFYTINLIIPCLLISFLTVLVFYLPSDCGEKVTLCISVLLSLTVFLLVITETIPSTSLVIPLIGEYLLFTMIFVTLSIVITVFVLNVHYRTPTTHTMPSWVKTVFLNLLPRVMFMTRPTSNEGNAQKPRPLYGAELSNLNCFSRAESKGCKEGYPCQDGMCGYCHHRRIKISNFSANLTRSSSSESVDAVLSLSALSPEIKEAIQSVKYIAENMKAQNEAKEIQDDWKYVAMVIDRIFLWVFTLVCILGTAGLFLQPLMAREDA
Nicotinic acetylcholine α3β4, sequence (P30926 22-498): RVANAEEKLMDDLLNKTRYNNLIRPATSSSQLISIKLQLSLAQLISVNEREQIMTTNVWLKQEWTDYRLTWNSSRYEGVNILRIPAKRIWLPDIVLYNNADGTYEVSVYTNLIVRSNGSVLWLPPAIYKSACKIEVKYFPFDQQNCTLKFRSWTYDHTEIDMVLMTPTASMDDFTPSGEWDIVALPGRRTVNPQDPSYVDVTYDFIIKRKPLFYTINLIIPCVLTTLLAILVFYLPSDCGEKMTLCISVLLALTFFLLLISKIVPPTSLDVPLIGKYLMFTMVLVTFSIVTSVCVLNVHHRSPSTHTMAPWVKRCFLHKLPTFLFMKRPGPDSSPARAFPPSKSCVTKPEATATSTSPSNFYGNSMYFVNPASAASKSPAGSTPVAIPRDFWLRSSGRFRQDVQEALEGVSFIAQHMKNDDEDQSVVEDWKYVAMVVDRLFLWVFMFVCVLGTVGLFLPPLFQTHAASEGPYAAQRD

Q: Which results are given for `CNC(C)Cc1ccc2c(c1)OCO2` (racemic) [Racemic MDMA, 3,4-methylenedioxymethamphetamine]?
A: % inhibition of binding or activity ([1]; 10 uM): 59%; % inhibition of binding or activity ([2]; 10 µM): 87%; % inhibition of binding or activity ([3]; 10 uM): 66%; total distance traveled ([4]; racemic MDMA 7.8 mg/kg IP, Day 1, persisted out to Day 2, 30-minute test, vs vehicle): significantly increased; total ambulatory counts [4, 9]: increased; total ambulatory time [4, 9]: increased; total vertical counts [4, 10]: did not alter; total vertical time [4, 10]: did not alter; frontal cortical and striatal monoamine concentrations [5]: significant reductions in frontal cortical 5-HT and 5-HIAA and striatal DOPAC and HVA concentrations

Q: For `C[C@H](N)Cc1ccc2c(c1)OCO2` [S-MDA, S(+)-MDA], which “% inhibition of binding or activity” value [6] is on record?
A: Its value is 63%.

Q: And the “% inhibition of binding or activity” value [7]?
A: Its value is 51%.

Q: For `CNC(C)Cc1ccc2c(c1)OCO2` (single isomer, unassigned) [R-MDMA, R(−)-3,4-methylenedioxymethamphetamine], which IC50 [1] is on record?
A: Its IC50 is 9.91 µM.

Q: What about the Ki [1] of the same compound?
A: The Ki was 2.83 µM.

Q: What about the inhibition at 10 µM [2, 11] of the same compound?
A: Its inhibition at 10 µM is 78%.

Q: What about the inhibition at 10 µM [3, 11] of the same compound?
A: Its inhibition at 10 µM is 55%.

Q: What about the “% inhibition of binding or activity” value [8] of the same compound?
A: The value was 55%.

Q: And the IC50 [8]?
A: Its IC50 is 9.5 µM.

Q: And the Ki [8]?
A: Its Ki is 9.23 µM.

Q: What about the total ambulatory time ([4]; R-MDMA 2 highest doses (17, 30 mg/kg IP), only on Day 1) of the same compound?
A: The total ambulatory time was “significantly increased”.

Q: What about the total distance traveled ([4]; R-MDMA 10, 17, 30 mg/kg IP, any dose, any day of testing) of the same compound?
A: The total distance traveled was “no significant increase”.

Q: What about the total vertical counts [4, 12] of the same compound?
A: The total vertical counts was “significantly reduced”.

Q: What about the total vertical time [4, 12] of the same compound?
A: Its total vertical time is “significantly reduced”.

Q: And the total ambulatory counts ([4]; R-MDMA highest dose (30 mg/kg IP), only on Day 1)?
A: The total ambulatory counts was “significantly increased”.

Q: And the total vertical time ([4]; R-MDMA lowest dose (10 mg/kg IP), day 2 only)?
A: The total vertical time was “significant increase”.

Q: Which “% inhibition of binding or activity” value [8] does the source give for `CNC(C)Cc1ccc2c(c1)OCO2` (single isomer, unassigned) [S-MDMA, S(+)-MDMA] here?
A: The value was 51%.

Q: What about the IC50 [8] of the same compound?
A: The IC50 was 9.31 µM.

Q: What about the Ki [8] of the same compound?
A: The Ki was 9.05 µM.
